Source: ChEMBL document CHEMBL5154709, “Tetrazole derivatives bearing benzodiazepine moiety-synthesis and action mode against virulence of Candida albicans” (Eur J Med Chem, 2022)
≈ marks a conversion by molar mass, not a printed value. Calls of active or inactive are those of the source. The calls are words filed in the database; no cut-off is given here.

Tests used:
[1] = test system: Candida albicans; experiment: Antifungal activity against Candida albicans SC5314 assessed as inhibition of fungal growth at 0.03125 ug/ml incubated for 18 hrs by M27-A3 based microdilution method relative to control; assay type: functional
[2] = test system: Candida albicans; experiment: Antifungal activity against Candida albicans SC5314 assessed as inhibition of fungal growth at 0.125 ug/ml incubated for 48 hrs by M27-A3 based microdilution method relative to control; assay type: functional
[3] = test system: Candida albicans; experiment: Antifungal activity against Candida albicans SC5314 assessed as inhibition of fungal growth at 0.0625 ug/ml incubated for 18 hrs by M27-A3 based microdilution method relative to control; assay type: functional
[4] = test system: Candida albicans; experiment: Antifungal activity against Candida albicans SC5314 assessed as inhibition of fungal growth at 0.5 ug/ml incubated for 48 hrs by M27-A3 based microdilution method relative to control; assay type: functional
[5] = test system: Candida albicans; experiment: Antifungal activity against Candida albicans SC5314 assessed as inhibition of fungal growth at 4 ug/ml incubated for 48 hrs by M27-A3 based microdilution method relative to control; assay type: functional
[6] = test system: Candida albicans; experiment: Antifungal activity against Candida albicans SC5314 assessed as inhibition of fungal growth at 0.0625 ug/ml incubated for 48 hrs by M27-A3 based microdilution method relative to control; assay type: functional
[7] = test system: Candida albicans; experiment: Antifungal activity against Candida albicans SC5314 assessed as inhibition of fungal growth at 2 ug/ml incubated for 18 hrs by M27-A3 based microdilution method relative to control; assay type: functional
[8] = test system: Candida albicans; experiment: Antifungal activity against Candida albicans SC5314 assessed as inhibition of fungal growth at 1 ug/ml incubated for 48 hrs by M27-A3 based microdilution method relative to control; assay type: functional
[9] = test system: Candida albicans; experiment: Antifungal activity against Candida albicans SC5314 assessed as inhibition of fungal growth at 0.5 ug/ml incubated for 18 hrs by M27-A3 based microdilution method relative to control; assay type: functional
[10] = test system: Candida albicans; experiment: Antifungal activity against Candida albicans SC5314 assessed as inhibition of fungal growth at 0.125 ug/ml incubated for 18 hrs by M27-A3 based microdilution method relative to control; assay type: functional
[11] = test system: Candida albicans; experiment: Antifungal activity against Candida albicans SC5314 assessed as inhibition of fungal growth at 16 ug/ml incubated for 48 hrs by M27-A3 based microdilution method relative to control; assay type: functional
[12] = test system: Candida albicans; experiment: Antifungal activity against Candida albicans SC5314 assessed as inhibition of fungal growth at 8 ug/ml incubated for 48 hrs by M27-A3 based microdilution method relative to control; assay type: functional
[13] = test system: Candida albicans; experiment: Antifungal activity against Candida albicans SC5314 assessed as inhibition of fungal growth at 0.25 ug/ml incubated for 48 hrs by M27-A3 based microdilution method relative to control; assay type: functional
[14] = test system: Candida albicans; experiment: Antifungal activity against Candida albicans SC5314 assessed as inhibition of fungal growth at 8 ug/ml incubated for 18 hrs by M27-A3 based microdilution method relative to control; assay type: functional
[15] = test system: Candida albicans; experiment: Antifungal activity against Candida albicans SC5314 assessed as inhibition of fungal growth at 16 ug/ml incubated for 18 hrs by M27-A3 based microdilution method relative to control; assay type: functional
[16] = test system: Candida albicans; experiment: Antifungal activity against Candida albicans SC5314 assessed as inhibition of fungal growth at 1 ug/ml incubated for 18 hrs by M27-A3 based microdilution method relative to control; assay type: functional
[17] = test system: Candida albicans; experiment: Antifungal activity against Candida albicans SC5314 assessed as inhibition of fungal growth at 0.03125 ug/ml incubated for 48 hrs by M27-A3 based microdilution method relative to control; assay type: functional
[18] = test system: Candida albicans; experiment: Antifungal activity against Candida albicans SC5314 assessed as inhibition of fungal growth at 2 ug/ml incubated for 48 hrs by M27-A3 based microdilution method relative to control; assay type: functional
[19] = test system: Candida albicans; experiment: Antifungal activity against Candida albicans SC5314 assessed as inhibition of fungal growth at 0.25 ug/ml incubated for 18 hrs by M27-A3 based microdilution method relative to control; assay type: functional
[20] = test system: Candida albicans; experiment: Antifungal activity against Candida albicans SC5314 assessed as inhibition of fungal growth at 4 ug/ml incubated for 18 hrs by M27-A3 based microdilution method relative to control; assay type: functional
[21] = Toxicity in Galleria mellonella larvae assessed as melanization of larvae at 0.05 ug/ml measured every 24 hrs upto 5 days relative to control; conditions: 120 h, at 0.05 µg/mL, time < 5 day
[22] = Cytotoxicity against human TR146 cells at more than 64 ug/ml measured after 24 hrs by XTT assay; assay type: toxicity, cell-based; conditions: tr146, 24 h, dose 64 µg/ml
[23] = test system: Candida albicans; experiment: Antifungal against Candida albicans SC5314 biofilm assessed as amorphous layer of cell surface barrier at 16 ug/ml incubated for 18 hrs by Rho123 and Hoechst 33342 double staining based confocal laser scanning microscopic analysis; assay type: functional, organism-based; conditions: dose 16.0 µg/ml
[24] = test system: Candida albicans; experiment: Induction of apoptosis in Candida albicans SC5314 non-protoplast cells assessed as necrotic cells at 16 ug/ml incubated for 18 hrs by PI/Annexin V staining based flow cytometry assay; assay type: functional; conditions: dose 16 µg/ml
[25] = Toxicity in Galleria mellonella larvae assessed as melanization of larvae at 16 ug/ml measured every 24 hrs for 4 to 5 days relative to control; conditions: at 16 µg/mL, time 4-5 day
[26] = test system: Candida albicans; experiment: In vivo antifungal activity against Candida albicans SC5314 infected in Galleria mellonella larvae assessed as prevention of candidiasis at 16 ug/ml administered 1 hr prior to infection measured after 5 days by Hematoxylin and eosin staining; assay type: functional, organism-based; conditions: dose 16.0 µg/ml, time 5.0 day
[27] = Toxicity in Galleria mellonella larvae assessed as change in morphology at 16 ug/ml measured after 5 days by Hematoxylin and eosin staining; conditions: 120 h, dose 16 µg/ml, time 5 day
[28] = test system: Candida albicans; experiment: Induction of reactive oxygen species generation in Candida albicans SC5314 assessed as increase in ROS level at 16 ug/ml incubated for 18 hrs by DCFH-DA staining based flow cytometric analysis (reference value: 0.77+/- 0.4%); assay type: functional; conditions: dose 16 µg/ml
[29] = test system: Candida albicans; experiment: Antifungal activity against Candida albicans assessed as inhibition of fungal growth measured after 48 hrs by M27-A3 based broth microdilution; assay type: functional
[30] = test system: Candida albicans; experiment: Induction of cell cycle arrest in Candida albicans SC5314 assessed as accumulation of cells in G0/G1 phase at 16 ug/ml incubated fro 18 hrs by PI staining based flow cytometry method; assay type: functional, organism-based; conditions: dose 16.0 µg/ml
[31] = test system: Vero; experiment: Cytotoxicity against African green monkey Vero cells at > 64 ug/ml measured after 24 hrs by XTT assay; assay type: toxicity, cell-based; conditions: chlorocebus sabaeus, dose > 64 µg/ml
[32] = test system: Candida albicans; experiment: In vivo antifungal activity against Candida albicans SC5314 infected in Galleria mellonella larvae assessed as survival rate of larvae at 16 ug/ml administered 1 hr prior to infection measured within 5 days by Hematoxylin and eosin staining; assay type: functional; conditions: SC5314, 120 h, time 5 day
[33] = test system: Candida albicans; experiment: Antifungal against Candida albicans SC5314 biofilm co-cultured with African green monkey Vero cells assessed as apoptotic-like chromatin aggregation of intact hyphae by measuring green fluorescence emission at 16 ug/ml incubated for 18 hrs by PI/acridine orange double staining based confocal laser scanning microscopic analysis; assay type: functional, organism-based; conditions: dose 16.0 µg/ml
[34] = test system: Candida albicans; experiment: Induction of apoptosis in Candida albicans SC5314 protoplast cells assessed as necrotic cells at 16 ug/ml incubated for 18 hrs by PI/Annexin V staining based flow cytometry assay; assay type: functional; conditions: dose 16 µg/ml
[35] = test system: Candida albicans; experiment: Antifungal activity against Candida albicans assessed as inhibition of fungal growth measured after 48 hrs in presence of exogenous ergosterol by M27-A3 based broth microdilution; assay type: functional
[36] = test system: Candida albicans; experiment: Fungicidal activity against Candida albicans SC5314 assessed as inhibition of fungal growth incubated for 48 hrs by M27-A3 based microdilution method; assay type: functional
[37] = test system: Candida albicans; experiment: Induction of reactive oxygen species generation in Candida albicans BWP17 assessed as increase in ROS level at 16 ug/ml incubated for 18 hrs by DCFH-DA staining based flow cytometric analysis (reference value: 7.2+/- 0.2%); assay type: functional; conditions: dose 16 µg/ml
[38] = test system: Candida albicans; experiment: In vivo antifungal activity against Candida albicans SC5314 infected in Galleria mellonella larvae assessed as survival rate of larvae at 16 ug/ml administered 1 hr post infection measured within 5 days by Hematoxylin and eosin staining; assay type: functional; conditions: SC5314, 120 h, time 5 day
[39] = test system: Candida albicans; experiment: Induction of reactive oxygen species generation in Candida albicans CNB1/cnb1delta mutant assessed as increase in ROS level at 16 ug/ml incubated for 18 hrs by DCFH-DA staining based flow cytometric analysis (reference value: 3.8+/- 4.2%); assay type: functional; conditions: dose 16 µg/ml
[40] = test system: Candida albicans; experiment: Induction of reactive oxygen species generation in Candida albicans cnb1delta/cnb1delta mutant assessed as increase in ROS level at 16 ug/ml incubated for 18 hrs by DCFH-DA staining based flow cytometric analysis (reference value: 4.7+/- 5.9%); assay type: functional; conditions: dose 16 µg/ml

Structure (SMILES)	inhibition at 0.03125 µg/mL [1] [%]	inhibition at 0.125 µg/mL [2] [%]	inhibition at 0.0625 µg/mL [3] [%]	inhibition at 0.5 µg/mL [4] [%]	inhibition at 4 µg/mL [5] [%]	inhibition at 0.0625 µg/mL [6] [%]	inhibition at 2 µg/mL [7] [%]	inhibition at 1 µg/mL [8] [%]	inhibition at 0.5 µg/mL [9] [%]	inhibition at 0.125 µg/mL [10] [%]	inhibition at 8 µg/mL [12] [%]	inhibition at 0.25 µg/mL [13] [%]	inhibition at 8 µg/mL [14] [%]	inhibition at 16 µg/mL [15] [%]	inhibition at 1 µg/mL [16] [%]	inhibition at 0.03125 µg/mL [17] [%]	inhibition at 2 µg/mL [18] [%]	inhibition at 0.25 µg/mL [19] [%]	inhibition at 4 µg/mL [20] [%]	also measured
C[C@@H]1[C@H](O)[C@@H](C)/C=C/C=C/C=C/C=C/C=C/C=C/C=C/[C@H](O[C@@H]2O[C@H](C)[C@@H](O)[C@H](N)[C@@H]2O)C[C@@H]2O[C@](O)(C[C@@H](O)C[C@@H](O)[C@H](O)CC[C@@H](O)C[C@@H](O)CC(=O)O[C@H]1C)C[C@H](O)[C@H]2C(=O)O [AMPHOTERICIN B]	100	100	100	100	100	100	100	100	100	100	100	100	100	100	100	100	100	100	100	inhibition at 16 µg/mL [11]: 100%; Activity [21]: 10%
O=C1CN=C(c2ccccc2Br)c2cc(F)ccc2N1CCCn1nnc(-c2ccc(Cl)cc2)n1	100	98.9	99.3	99	99.2	99.3	99.8	99.1	99	98.9	99	100	99	99.5	99	100	100	99.9	99.2	Activity [22]: Non-Toxic; Activity [23]: Active; Activity [24]: 78.23%; Activity [25]: 17%; Activity [26]: Active; Activity [27]: Non-Toxic; Activity [28]: 19.6%; MIC [29]: 64 µg/mL (≈ 116 µM); Activity [30]: Active; Activity [31]: Toxic; survival at 16 µg/mL [32]: 95%; Activity [33]: Active; Activity [34]: 81.23%; MIC [35]: 2.56 µg/mL; inhibition (INH) [36]: 99.24%; Activity [37]: 6.8%; survival at 16 µg/mL [38]: 100%; Activity [39]: 4.2%; Activity [40]: 3.35%
